From patent US7317038B2, “Nerve regeneration promoters containing semaphorin inhibitor as the active ingredient” (Dainippon Sumitomo Pharma Co., Ltd., priority 2000, dated 2008)

Experiments:
[1] = molecular target: T1, rat semaphorin 6C-AP (Sema6C-AP) (Rattus norvegicus, UniProt Q9WTL3); assay: Suppression of growth cone collapse activity of Sema6C-AP (chick embryo dorsal root ganglions); assay type: cell-based
T1 construct: a fusion protein of extracellular domain of Sema6C and human placenta-derived alkaline phosphatase
T1 sequence (Q9WTL3 24-635 limits assumed): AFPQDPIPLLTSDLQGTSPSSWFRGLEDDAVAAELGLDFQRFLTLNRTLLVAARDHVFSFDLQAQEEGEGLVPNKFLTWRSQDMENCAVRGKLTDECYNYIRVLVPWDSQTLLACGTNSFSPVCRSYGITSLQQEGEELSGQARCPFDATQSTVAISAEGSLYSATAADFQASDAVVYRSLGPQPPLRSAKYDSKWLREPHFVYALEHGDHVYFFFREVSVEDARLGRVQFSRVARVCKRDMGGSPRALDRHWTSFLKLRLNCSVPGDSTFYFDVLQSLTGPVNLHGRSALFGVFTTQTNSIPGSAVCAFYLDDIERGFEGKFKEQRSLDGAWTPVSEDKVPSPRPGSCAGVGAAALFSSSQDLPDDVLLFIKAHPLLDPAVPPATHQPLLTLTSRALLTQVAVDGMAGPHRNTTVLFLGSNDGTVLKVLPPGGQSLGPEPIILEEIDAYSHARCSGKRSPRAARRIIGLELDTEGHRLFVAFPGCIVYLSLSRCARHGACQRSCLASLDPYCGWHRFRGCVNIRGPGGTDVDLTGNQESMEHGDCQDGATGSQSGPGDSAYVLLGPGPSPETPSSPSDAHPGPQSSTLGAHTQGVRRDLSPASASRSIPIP
Experimental: The experiment was carried out in a same way as in Example 2 except that rat semaphorin 6C-AP (Sema6C-AP: a fusion protein of extracellular domain of Sema6C and human placenta-derived alkaline phosphatase) was used instead of mouse semaphorin 3A (Sema3A), and dorsal root ganglions excised from 8-day-old chick embryos were used instead of those excised from 7-day-old chick embryos. The collapse rate of growth cone was measured when Sema6C-AP was added one hour after the addition of the compound SPF-3059-1 at various concentrations.

[2] = system: spinal cord injury model adult rats; assay: In vivo nerve regeneration after transection of the spinal nerve (cerebral cortex-spinal cord tract); settings: rat; 0.6 μg/day for four consecutive weeks
Experimental: Male Wister rats (10-week-old) were purchased from Charles River Japan, Inc. and bred under free feeding and water uptake in a dedicated breeding room. They were used in the experiment after about one week of pre-breeding. SPF-3059-1 was prepared to 0.1 mg/ml with PBS. PBS was used as a control. The agent was filled in an osmotic pressure pump (Alzet, model 2004, dosage for four weeks, flow rate 0.25 μl/hr). A cannula filled with the sample solution etc. was connected to the pump and pre-incubated in saline overnight at room temperature.
A rat was intrapenitrially injected with pentbarbital (50 mg/kg). Skin and muscles in dorsal thoracic spinal cord region of the anesthetized rat were incised and the T8-T12 vertebras were exposed. Laminectomy was carried out for the T11 thoracic vertebra under the microscope. A pair of ophthalmologic scissors attached to the manipulator was punctured and inserted across the median line into the depth of 1.5 mm from the duramater surface, and the cerebral cortex-spinal cord pathway was incised and separated. The vertebra opening was filled with a spongel. Cannulation was performed from the T9 vertebra which was perforated with a surgical drill to expose the duramater. The part of the duramater, to which a cannula was to be inserted, was perforated with an injection needle and the silicon tube connected with the pump was inserted therein. […]

[3] = system: sciatic nerves that were crushed; assay: In vivo nerve regeneration after sciatic nerve crush; settings: rat; 1 ug/day locally for 14 days; distal areas of 2 mm and 6 mm from the crush site
Experimental: Male Wister rats were purchased at 7-week-old (CHARLES RIVER JAPAN, INC.) and bred under the light and dark cycles for 12 hours. The rats had free access to solid feedstuff (CLEA Japan, Inc., CE2) and water, and were used in the experiment after about one week of preliminary breeding. Under pentbarbital anesthesia, sciatic nerve of the rat thighs was exposed, clipped for 30 sec with forceps of 5 mm width, and was thus crushed. The crush site was marked with 10-0 nylon thread. SPF-3059-1 was dissolved in PBS at 8.3 ug/ml and was locally administered to the lesion site for 14 consecutive days at a flow rate of 1 ug/day by using an osmotic pressure pump (2ML2, 5 ul/hr, alzet). PBS was administered to the controls. At Day 14 of administration, the sciatic nerves were excised and trimmed at the distal areas from the crush site (the positions of marking) by 2 mm, 6 mm and 10 mm. The incised sciatic nerves were fixed in 2.5% glutaraldehyde/0.1 M phosphate buffer for a day and a night. When they were fixed, nerves were dehydrated by alcohol and were embedded in epoxy resin. […] After the areas of sciatic nerves were measured, the myelinated fiber density was calculated by […].

- collapse rate of growth cones, compound alone ([1]; Sema6C-AP not added): did not affect the rate at all
Structure (SMILES): CC(=O)c1c(C)c(C(=O)C2COc3cc(O)c(O)c(C(=O)O)c3C2=O)cc2c(=O)c3c(C(=O)O)c(O)c(O)cc3oc12 (stereo not shown) [SPF-3059-1]
- inhibition of growth cone collapse activity of Sema6C-AP (in words) ([1]; E8 chick embryo dorsal root ganglions, Sema6C-AP added one hour after compound): inhibit the growth cone collapse activities of Sema6C-AP in a concentration-dependent manner
- nerve-regeneration promoting action after spinal nerve incision (DBA-positive fibers) [2]: has the nerve-regeneration promoting action
- myelinated fiber density vs PBS-injected group [3]: increased more
